{"source": "patent US5061711A", "about": "“Method of curing liver diseases by using pyrrolo quinoline quinone triesters and novel pyrrolo quinoline quinone triesters” (Mitsubishi Gas Chemical Company, Inc., priority 1989, dated 1991)", "key": {"mice [1]": {"system": "mice", "assay": "Kidney toxicity determined by urine test", "type": "in vivo, mouse", "experimental": "(2) Kidney toxicity determined by urine test\nPQQ.2Na, PQQ trimethyl ester and PQQ triallyl ester were intraperitoneally administered to mice and they were bred in the same manner as in the above acute toxicity test. The doses per kg of body weight of mouse were 20, 40 and 80 mg for PQQ.2Na and 20, 40, 80, 160 and 200 mg for PQQ triesters. Urine was collected every day and glucose concentration was examined using clinical examination reagent (trademark: […] II manufactured by Miles.Sankyo Co.)."}, "mice [2]": {"system": "mice", "assay": "Kidney toxicity (2) determined by blood examination", "type": "in vivo, mouse", "conditions": "average of eight mice; for Creatinine in serum: None: 0.8; for Urea nitrogen in serum: None: 23; for Glucose in serum: None: 93", "experimental": "(4) Kidney toxicity (2) determined by blood examination:\nThe dosage per kg of body weight of mouse was 150, 400 mg and 100 mg.\nAfter lapse of one day from the administration, the mice were fasted (only water was given) and then, after 15 hours, blood was collected and serum was obtained therefrom. Glucose, urea nitrogen and creatinine in the serum were examined by clinical examination reagent (trademark : FUJI DRYCHEMSLIDE manufactured by Fuji Photo Film Co., Ltd.). The results are shown by average value of eight mice in Table 4."}, "[3]": {"system": "D-galactosamine-induced liver diseases", "assay": "Pharmacological effect (2) on D-galactosamine-induced liver diseases", "type": "in vivo, SD rats", "conditions": "D-galactosamine 1 g/kg rat i.p., 23 hours, average of five rats; for Total bilirubin in serum: D-galactosamine alone 1.4; for GPT in serum: D-galactosamine alone 1560; for GOT in serum: D-galactosamine alone 2542", "experimental": "Pharmacological effect (2) of PQQ triesters on D-galactosamine-induced liver diseases:\nForty SD rats (male, 7 weeks old, body weight: about 260 g; supplied by Japan Charles River Co.) were divided to eight groups (A-H) each consisting of five rats. All rats were fasted for 18 hours and 1.3 ml of a solution containing 1 mg/ml of PQQ trimethyl ester was orally administered to the rats of group C, 1.3 ml of a solution containing 2 mg/ml of PQQ trimethyl ester was orally administered to the rats of group D, 1.3 ml of a solution containing 3 mg/ml of PQQ trimethyl ester was orally administered to the rats of group E, 1.3 ml of a solution containing 1 mg/ml of PQQ triallyl ester was orally administered to the rats of group F, 1.3 ml of a solution containing 2 mg/ml of PQQ triallyl ester was orally administered to the rats of group G, and 1.3 ml of a solution containing 3 mg/ml of PQQ triallyl ester was orally administered to the rats of group H and furthermore, after lapse of 40 minutes, the same PQQ triesters in the same doses as above were orally administered to respective rats. In these cases, the PQQ triesters were suspended in physiological saline containing 1% Tween 80 and administered to the rats. 1.3 ml of physiological saline was orally administered to the rats of group B in place of PQQ triesters. Furthermore, after lapse of 20 minutes, 1.3 ml of a solution of d-galactosamine in 10 ml of physiological saline was intraperitoneally administered to the rats of groups B-H. Neither PQQ triesters nor D-galactosamine were administered to the rats of group A.\nAfter 23 hours from administration of D-galactosamine, blood was collected from abdominal main artery and serum was obtained by centrifugation therefrom.\nGPT, GOT and amount of total bilirubin in the serum were measured by clinical examination reagent (trademark: FUJI DRYCHEMSLIDE manufactured by Fuji Photo Film Co., Ltd.). The results are shown in Table 8 by average value of five rats."}}}
{"smiles": "COC(=O)c1cc(C(=O)OC)c2c(n1)C(=O)C(=O)c1cc(C(=O)OC)[nH]c1-2", "note": "[PQQ trimethyl ester]", "values": [{"measurement": "glucose in urine", "setting": "mice [1]; i.p. 20 mg/kg, day 1", "result": "-"}, {"measurement": "glucose in urine", "setting": "mice [1]; i.p. 20 mg/kg, day 2", "result": "-"}, {"measurement": "glucose in urine", "setting": "mice [1]; i.p. 20 mg/kg, day 3", "result": "-"}, {"measurement": "glucose in urine", "setting": "mice [1]; i.p. 20 mg/kg, day 6", "result": "-"}, {"measurement": "glucose in urine", "setting": "mice [1]; i.p. 20 mg/kg, day 7", "result": "-"}, {"measurement": "glucose in urine", "setting": "mice [1]; i.p. 20 mg/kg, day 8", "result": "-"}, {"measurement": "glucose in urine", "setting": "mice [1]; i.p. 20 mg/kg, day 10", "result": "-"}, {"measurement": "glucose in urine", "setting": "mice [1]; i.p. 20 mg/kg, day 13", "result": "-"}, {"measurement": "glucose in urine", "setting": "mice [1]; i.p. 20 mg/kg, day 14", "result": "-"}, {"measurement": "glucose in urine", "setting": "mice [1]; i.p. 40 mg/kg, day 1", "result": "-"}, {"measurement": "glucose in urine", "setting": "mice [1]; i.p. 40 mg/kg, day 2", "result": "-"}, {"measurement": "glucose in urine", "setting": "mice [1]; i.p. 40 mg/kg, day 3", "result": "-"}, {"measurement": "glucose in urine", "setting": "mice [1]; i.p. 40 mg/kg, day 6", "result": "-"}, {"measurement": "glucose in urine", "setting": "mice [1]; i.p. 40 mg/kg, day 7", "result": "-"}, {"measurement": "glucose in urine", "setting": "mice [1]; i.p. 40 mg/kg, day 8", "result": "-"}, {"measurement": "glucose in urine", "setting": "mice [1]; i.p. 40 mg/kg, day 10", "result": "-"}, {"measurement": "glucose in urine", "setting": "mice [1]; i.p. 40 mg/kg, day 13", "result": "-"}, {"measurement": "glucose in urine", "setting": "mice [1]; i.p. 40 mg/kg, day 14", "result": "-"}, {"measurement": "glucose in urine", "setting": "mice [1]; i.p. 80 mg/kg, day 1", "result": "-"}, {"measurement": "glucose in urine", "setting": "mice [1]; i.p. 80 mg/kg, day 2", "result": "-"}, {"measurement": "glucose in urine", "setting": "mice [1]; i.p. 80 mg/kg, day 3", "result": "-"}, {"measurement": "glucose in urine", "setting": "mice [1]; i.p. 80 mg/kg, day 6", "result": "-"}, {"measurement": "glucose in urine", "setting": "mice [1]; i.p. 80 mg/kg, day 7", "result": "-"}, {"measurement": "glucose in urine", "setting": "mice [1]; i.p. 80 mg/kg, day 8", "result": "-"}, {"measurement": "glucose in urine", "setting": "mice [1]; i.p. 80 mg/kg, day 10", "result": "-"}, {"measurement": "glucose in urine", "setting": "mice [1]; i.p. 80 mg/kg, day 13", "result": "-"}, {"measurement": "glucose in urine", "setting": "mice [1]; i.p. 80 mg/kg, day 14", "result": "-"}, {"measurement": "glucose in urine", "setting": "mice [1]; i.p. 160 mg/kg, day 1", "result": "-"}, {"measurement": "glucose in urine", "setting": "mice [1]; i.p. 160 mg/kg, day 2", "result": "-"}, {"measurement": "glucose in urine", "setting": "mice [1]; i.p. 160 mg/kg, day 3", "result": "-"}, {"measurement": "glucose in urine", "setting": "mice [1]; i.p. 160 mg/kg, day 6", "result": "-"}, {"measurement": "glucose in urine", "setting": "mice [1]; i.p. 160 mg/kg, day 7", "result": "-"}, {"measurement": "glucose in urine", "setting": "mice [1]; i.p. 160 mg/kg, day 8", "result": "-"}, {"measurement": "glucose in urine", "setting": "mice [1]; i.p. 160 mg/kg, day 10", "result": "-"}, {"measurement": "glucose in urine", "setting": "mice [1]; i.p. 160 mg/kg, day 13", "result": "-"}, {"measurement": "glucose in urine", "setting": "mice [1]; i.p. 160 mg/kg, day 14", "result": "-"}, {"measurement": "glucose in urine", "setting": "mice [1]; i.p. 200 mg/kg, day 1", "result": "-"}, {"measurement": "glucose in urine", "setting": "mice [1]; i.p. 200 mg/kg, day 2", "result": "-"}, {"measurement": "glucose in urine", "setting": "mice [1]; i.p. 200 mg/kg, day 3", "result": "-"}, {"measurement": "glucose in urine", "setting": "mice [1]; i.p. 200 mg/kg, day 6", "result": "-"}, {"measurement": "glucose in urine", "setting": "mice [1]; i.p. 200 mg/kg, day 7", "result": "-"}, {"measurement": "glucose in urine", "setting": "mice [1]; i.p. 200 mg/kg, day 8", "result": "-"}, {"measurement": "glucose in urine", "setting": "mice [1]; i.p. 200 mg/kg, day 10", "result": "-"}, {"measurement": "glucose in urine", "setting": "mice [1]; i.p. 200 mg/kg, day 13", "result": "-"}, {"measurement": "glucose in urine", "setting": "mice [1]; i.p. 200 mg/kg, day 14", "result": "-"}, {"measurement": "glucose in urine (in words)", "setting": "mice [1]; i.p., all doses", "result": "no glucose was detected"}, {"measurement": "Creatinine in serum", "setting": "mice [2]; 150 mg/kg", "result": 0.9, "unit": "mg/dL"}, {"measurement": "Urea nitrogen in serum", "setting": "mice [2]; 150 mg/kg", "result": 22, "unit": "mg/dL"}, {"measurement": "Glucose in serum", "setting": "mice [2]; 150 mg/kg", "result": 72, "unit": "mg/dL"}, {"measurement": "Creatinine in serum", "setting": "mice [2]; 400 mg/kg", "result": 0.7, "unit": "mg/dL"}, {"measurement": "Urea nitrogen in serum", "setting": "mice [2]; 400 mg/kg", "result": 20, "unit": "mg/dL"}, {"measurement": "Glucose in serum", "setting": "mice [2]; 400 mg/kg", "result": 55, "unit": "mg/dL"}, {"measurement": "Creatinine in serum", "setting": "mice [2]; 1000 mg/kg", "result": 0.7, "unit": "mg/dL"}, {"measurement": "Urea nitrogen in serum", "setting": "mice [2]; 1000 mg/kg", "result": 17, "unit": "mg/dL"}, {"measurement": "Glucose in serum", "setting": "mice [2]; 1000 mg/kg", "result": 60, "unit": "mg/dL"}, {"measurement": "Total bilirubin in serum", "setting": "[3]; oral 5 mg/kg rat twice", "result": 0.8, "unit": "mg/dL"}, {"measurement": "GPT in serum", "setting": "[3]; oral 5 mg/kg rat twice", "result": 431, "unit": "U/l"}, {"measurement": "GOT in serum", "setting": "[3]; oral 5 mg/kg rat twice", "result": 926, "unit": "U/l"}, {"measurement": "Total bilirubin in serum", "setting": "[3]; oral 10 mg/kg rat twice", "result": 0.7, "unit": "mg/dL"}, {"measurement": "GPT in serum", "setting": "[3]; oral 10 mg/kg rat twice", "result": 330, "unit": "U/l"}, {"measurement": "GOT in serum", "setting": "[3]; oral 10 mg/kg rat twice", "result": 540, "unit": "U/l"}, {"measurement": "Total bilirubin in serum", "setting": "[3]; oral 15 mg/kg rat twice", "result": 1.0, "unit": "mg/dL"}, {"measurement": "GPT in serum", "setting": "[3]; oral 15 mg/kg rat twice", "result": 701, "unit": "U/l"}, {"measurement": "GOT in serum", "setting": "[3]; oral 15 mg/kg rat twice", "result": 1260, "unit": "U/l"}]}
